# Legend:
# PPARγ = molecular target: T1, PPARγ (Mus musculus, UniProt P37238); experiment: In vitro binding of GST-PGC-1 to in vitro-translated nuclear receptor; settings: GST-PGC-1 (aa 36-797) on beads
# T1 construct: made in house; host or cells: receptor: reticulocyte lysate in vitro translation (Promega TNT); GST-PGC-1: E. coli
# T1 sequence (P37238 1-505): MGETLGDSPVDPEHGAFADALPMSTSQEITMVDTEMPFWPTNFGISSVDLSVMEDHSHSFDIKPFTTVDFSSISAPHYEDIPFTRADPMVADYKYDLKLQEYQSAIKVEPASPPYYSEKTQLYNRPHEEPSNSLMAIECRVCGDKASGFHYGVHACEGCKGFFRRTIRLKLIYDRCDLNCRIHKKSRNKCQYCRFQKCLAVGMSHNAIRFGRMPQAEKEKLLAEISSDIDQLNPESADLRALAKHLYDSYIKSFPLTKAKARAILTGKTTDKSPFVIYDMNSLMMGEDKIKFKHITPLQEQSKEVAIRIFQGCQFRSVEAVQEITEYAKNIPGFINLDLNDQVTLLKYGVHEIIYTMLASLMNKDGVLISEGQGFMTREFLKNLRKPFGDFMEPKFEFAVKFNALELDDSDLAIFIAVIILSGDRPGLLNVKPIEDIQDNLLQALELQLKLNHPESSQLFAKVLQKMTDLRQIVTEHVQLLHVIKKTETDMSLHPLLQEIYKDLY
# T1 sequence (O70343 36-797 partner limits assumed): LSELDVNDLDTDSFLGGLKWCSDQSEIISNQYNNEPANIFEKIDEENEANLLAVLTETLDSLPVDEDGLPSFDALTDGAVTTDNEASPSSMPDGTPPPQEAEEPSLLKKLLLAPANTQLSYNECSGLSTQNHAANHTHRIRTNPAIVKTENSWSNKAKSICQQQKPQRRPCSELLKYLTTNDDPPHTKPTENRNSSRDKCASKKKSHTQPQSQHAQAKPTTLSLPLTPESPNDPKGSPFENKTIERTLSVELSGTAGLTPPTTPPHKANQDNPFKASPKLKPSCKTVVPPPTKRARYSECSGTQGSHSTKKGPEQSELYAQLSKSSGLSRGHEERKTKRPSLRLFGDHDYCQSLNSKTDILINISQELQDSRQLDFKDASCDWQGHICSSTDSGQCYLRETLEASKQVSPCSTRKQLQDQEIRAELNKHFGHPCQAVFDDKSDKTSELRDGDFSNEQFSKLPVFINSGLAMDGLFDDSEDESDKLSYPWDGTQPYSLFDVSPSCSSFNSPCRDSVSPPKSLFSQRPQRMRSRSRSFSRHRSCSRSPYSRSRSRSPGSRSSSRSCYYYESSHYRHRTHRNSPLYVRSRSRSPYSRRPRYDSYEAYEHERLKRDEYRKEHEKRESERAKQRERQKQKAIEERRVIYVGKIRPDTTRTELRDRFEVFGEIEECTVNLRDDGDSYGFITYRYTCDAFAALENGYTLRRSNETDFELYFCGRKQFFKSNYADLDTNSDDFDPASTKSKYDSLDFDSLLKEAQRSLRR
# [1] = molecular target: T2, retinoid-X receptor (RXRα) (Homo sapiens, UniProt P19793); experiment: as above; settings: with or without ligand addition
# T2 construct: made in house; host or cells: receptor: reticulocyte lysate in vitro translation (Promega TNT); GST-PGC-1: E. coli
# T2 sequence (P19793 1-462): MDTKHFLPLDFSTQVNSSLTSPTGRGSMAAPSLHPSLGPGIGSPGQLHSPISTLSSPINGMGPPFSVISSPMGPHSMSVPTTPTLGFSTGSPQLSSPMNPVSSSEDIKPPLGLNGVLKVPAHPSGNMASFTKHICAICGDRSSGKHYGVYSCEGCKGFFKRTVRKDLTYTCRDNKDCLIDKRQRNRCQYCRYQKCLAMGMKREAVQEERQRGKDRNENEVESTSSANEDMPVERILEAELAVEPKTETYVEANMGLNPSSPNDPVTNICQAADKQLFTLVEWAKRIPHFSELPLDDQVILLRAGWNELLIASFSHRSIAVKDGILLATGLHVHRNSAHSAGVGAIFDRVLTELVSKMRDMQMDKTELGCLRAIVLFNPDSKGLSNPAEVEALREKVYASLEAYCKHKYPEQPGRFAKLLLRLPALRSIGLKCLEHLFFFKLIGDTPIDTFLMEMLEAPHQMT
# Procedure: The assays were carried out as follows.
# 3T3-F442A preadipocytes = experiment: Northern analysis of 3T3-F442A cells with retroviral ectopic expression of PGC-1; format: cell-based
# From the text: To examine directly the ability of PGC-1 to regulate the genes of adaptive thermogenesis, retroviral vectors have been used to express this protein in white fat precursor cells, and 3T3-F442A preadipocytes were then stimulated to differentiate. Briefly, the PGC-1 viral expression vector (pBabe-PGC-1) was constructed by ligating the BamHI-Xhol fragment from pBluescript-PGC-1 plasmid into BamHI/Sall sites of pBabe-puro. Following drug selection, virally infected 3T3F442A-PGC-1 and […] cells lines were grown to confluence in DMEM with 10% BCS. Differentiation of these cells was initiated by culturing them in DMEM insulin. Cells were refed every 2 days with this medium. Specific cells were grown in DMEM with 10% CCS to confluence. […] After these treatments, total RNA was isolated and analyzed.
# To induce UCP-1 expression, 1 μM 8-bromo-cAMP and […] 9-cis-retinoic acid were added to the medium, and total RNA was extracted from the cells 6 hr later. […] The mitochondrial respiratory enzyme cytochrome c-oxidase subunits COX II and IV are encoded in the mitochondrial and nuclear genome, respectively. Both of these mRNAs increase 2- to 3-fold in the cells ectopically expressing PGC-1. Expression of aP2, a white and brown fat cell gene not linked to thermogenesis, and 36B4, a ribosomal protein are shown as a loading control.
# 3T3-F442A cells = experiment: Southern blot analysis of mitochondrial DNA in 3T3-F442A cells expressing PGC-1; format: cell-based; settings: cells expressing PGC-1, COX-II cDNA probe
# Procedure: Changes in the cellular content of mitochondrial DNA have been used as a simple biochemical assay for mitochondrial proliferation (Martin et al. (1995) Biochem. J. 308:749-752; Klingenspor et al. (1996) Biochem. J. 316:607-613). To address this possibility, Southern blot analysis of mitochondrial DNA was performed. 3T3-F442A Southern blots were carried out by isolating and processing genomic DNA as described in Maniatis et al. (1989) Molecular Cloning: A Laboratory Manual, 2nd Ed. (Cold Spring Harbor, N.Y.: Cold Spring Harbor Laboratory Press)). 3T3-F442A cells were differentiated as described above. Total cellular DNA was isolated and was digested with NCo I. Ten micrograms of DNA were electrophoresed, and the Southern blot was hybridized using COX-II cDNA as a probe for mitrochondrial DNA.
# The same blots were also probed with cDNA for 36B4, a ribosomal protein encoded in the nucleus. The blot was then stripped and hybridized with the nuclear gene […].
substance,measurement,setting,value
"PGC-1: mouse PPARγ coactivator 1 protein, SEQ ID NO:2; used as GST fusion or expressed from retroviral vector",binding of PGC-1 to PPARγ,PPARγ,interacted with PPARγ
same,binding of PGC-1 to RXRα,[1],little or no binding
same,mRNA for ATP synthetase,3T3-F442A preadipocytes; cells expressing PGC-1 vs control,increased
same,mRNA for UCP-1,"3T3-F442A preadipocytes; cells expressing PGC-1 vs control 3T3-F442A cells, 8-bromo-cAMP and 9-cis-retinoic acid, 6 hr",significantly induced
same,mitochondrial DNA content compared to control cells,3T3-F442A cells,twice

# Reference: patent US6525178B2, “PGC-1, a novel brown fat PPARgamma coactivator” (Dana-Farber Cancer Institute, priority 1997, dated 2003)
